Assay results taken from patent US7491747B2, “Butyric acid derivatives” (Merck Patent GmbH, priority 2001, dated 2009).

Tests used:
[1] = test system: vector expressing Gal4 alone; test: Luciferase reporter control without PPAR ligand binding region in CV-1 cells; type: cell-based; conditions: in the presence of the product
Description: CV-1 cells (monkey kidney cells) are co-transfected with an expression vector for the chimeric proteins PPARα-Gal4 or PPARγ-Gal4 and with a “reporter” plasmid which allows the expression of the luciferase gene placed under the control of a promoter containing Gal4 response elements. The cells are inoculated in 96-zwell microplates and co-transfected using a commercial reagent with the reporter plasmid (pG5-tk-pGL3) and the expression vector for the chimeric protein (PPARα-Gal4 or PPARγ-Gal4). After incubating for 4 hours, whole culture medium (containing 10% foetal calf serum) is added to the wells. After 24 hours, the medium is removed and replaced with whole medium containing the test products (50 μM final). The products are left in contact with the cells for 18 hours. The cells are then lysed and the ludferase activity is measured using a luminometer. A PPAR activation factor can then be calculated by means of the activation of the expression of the reporter gene induced by the product (relative to the control cells that have not received any product). […] In the absence of the binding region for the PPARα or γ ligand (vector expressing Gal4 alone), the luciferase activity measured in the presence of this product is zero.

[2] = biological target: T1, chimeric protein PPARγ-Gal4 (Homo sapiens, UniProt P37231); test: PPAR activation, Gal4 chimera luciferase reporter in co-transfected CV-1 cells; type: cell-based; conditions: 50 μM, 18 hours contact
T1 construct: Gal4 (fusion partner); expressed in transfected cells; host or cells: CV-1 cells (monkey kidney cells)
T1 sequence (P37231 238-503 limits assumed): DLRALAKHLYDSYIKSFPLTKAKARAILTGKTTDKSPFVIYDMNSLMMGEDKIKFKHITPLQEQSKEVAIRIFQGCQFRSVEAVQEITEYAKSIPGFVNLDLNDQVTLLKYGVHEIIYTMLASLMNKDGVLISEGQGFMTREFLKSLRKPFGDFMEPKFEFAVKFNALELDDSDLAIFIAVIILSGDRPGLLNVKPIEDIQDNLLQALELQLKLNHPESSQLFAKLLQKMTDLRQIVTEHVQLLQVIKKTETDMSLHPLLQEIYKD
Description: (§1) The measurement of the PPAR activation was performed according to a technique described by Lehmann et al. (1995, J. Biol. Chem. 270: 12953-12956).
(§2) CV-1 cells (monkey kidney cells) are co-transfected with an expression vector for the chimeric proteins PPARα-Gal4 or PPARγ-Gal4 and with a “reporter” plasmid which allows the expression of the luciferase gene placed under the control of a promoter containing Gal4 response elements.
(§3) The cells are inoculated in 96-zwell microplates and co-transfected using a commercial reagent with the reporter plasmid (pG5-tk-pGL3) and the expression vector for the chimeric protein (PPARα-Gal4 or PPARγ-Gal4). After incubating for 4 hours, whole culture medium (containing 10% foetal calf serum) is added to the wells. After 24 hours, the medium is removed and replaced with whole medium containing the test products (50 μM final). The products are left in contact with the cells for 18 hours. The cells are then lysed and the ludferase activity is measured using a luminometer. A PPAR activation factor can then be calculated by means of the activation of the expression of the reporter gene induced by the product (relative to the control cells that have not received any product).

[3] = biological target: T2, chimeric protein PPARα-Gal4 (Homo sapiens, UniProt Q07869); test: as above; type: cell-based; conditions: 50 μM, 18 hours contact
T2 construct: Gal4 (fusion partner); expressed in transfected cells; host or cells: CV-1 cells (monkey kidney cells)
T2 sequence (Q07869 239-466 limits assumed): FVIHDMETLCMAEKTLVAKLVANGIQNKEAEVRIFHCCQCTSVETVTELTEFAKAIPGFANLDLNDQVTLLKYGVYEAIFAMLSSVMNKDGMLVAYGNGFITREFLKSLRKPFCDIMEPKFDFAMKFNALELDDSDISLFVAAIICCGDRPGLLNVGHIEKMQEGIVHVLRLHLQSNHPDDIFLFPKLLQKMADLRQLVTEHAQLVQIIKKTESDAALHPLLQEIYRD
Description: as §1, §2, §3

db/db mice = test: Antidiabetic and hypolipidaemiant activity, oral, in db/db mice; type: in vivo; conditions: oral 20 mg/kg/day for 15 days
Description: The antidiabetic and hypolipidaemiant activity of the compounds was determined orally in db/db mice.
16 week-old db/db mice are treated orally for 15 days with the compound of Example 5 (20 mg/kg/day). Each group studied comprises seven animals. After treatment for 15 days, retro-orbital samples are taken after a mild anaesthesia and fasting for 4 hours.
The following parameters were measured:
Glycaemia assay (glucose oxidase) and assay of the lipid parameters on the sera at D15 (COBAS): triglycerides, total cholesterol (CHOL), the HDL cholesterol (HDL-C) and the free fatty acids (FFA) (BioMérieux and Waco Chemicals assay kit).
The measurements given represent mean values±standard error.

[4] = serum D15, mean ± standard error

melting point: 108 to 110 °C
PPAR activation factor (reporter gene expression relative to control cells) [2]: six
PPAR activation factor (reporter gene expression relative to control cells) [3]: nine
Compound: O=C(O)C(CCSc1ccccc1)Oc1ccc(C(F)(F)F)cc1 (centres unmarked) [Example 5, 4-phenylsulphanyl-2-(4-trifluoromethylphenoxy)butyric acid]
luciferase activity in the absence of the binding region for the PPARα or γ ligand [1]: zero
CHOL, % variation relative to the control (db/db mice; D15, * p < 0.05 vs control): 47* %
FFA, % variation relative to the control (db/db mice; D15, * p < 0.05 vs control): −38* %
Glycaemia, % variation relative to the control (db/db mice; D15, * p < 0.05 vs control): −59* %
HDL-C, % variation relative to the control (db/db mice; D15, * p < 0.05 vs control): 36* %
Triglycerides, % variation relative to the control (db/db mice; D15, * p < 0.05 vs control): −47* %
Glycaemia (db/db mice; D15, fasting 4 hours, mean ± standard error): 11.1 ± 3.3 mM
CHOL (total cholesterol) (db/db mice; [4]): 5.4 ± 0.9 mM
FFA (free fatty acids) (db/db mice; [4]): 0.4 ± 0.0 mM
HDL-C (db/db mice; [4]): 4.3 ± 0.6 mM
Triglycerides (db/db mice; [4]): 0.7 ± 0.1 mM
